Laboratory results as given in US12459918B2, “Isoquinolinone derivatives serving as rock protein kinase inhibitors and use thereof” (GUANGZHOU OCUSUN OPHTHALMIC BIOTECHNOLOGY CO., LTD., priority 2019, dated 2025).

Legend:
[1] = test system: New Zealand rabbits with normal intraocular pressure; assay: Reduction of intraocular pressure by repeated eye-drop administration for 14 days, experiment operation 1; format: in vivo; conditions: for Change of intraocular pressure: negative control minus group
Text: Experimental example 4. Experiment on reduction of intraocular pressure and ocular toxicity of New Zealand rabbits with normal intraocular pressure by repeated eye-drop administration for 14 days
The intraocular pressure reduction action and the potential ocular toxicity of compound 63 were explored by 14 days of repeated eye-drop administration in rabbits with normal intraocular pressure.
Male New Zealand rabbits, aged 97-127 days, weighted 2.6-3.5 kg, purchased from PizhouDongfang Breeding Co. Ltd.
The male New Zealand rabbits were randomly divided into 7 groups, with 6 rabbits per group. Animals were randomly divided according to body weight Animals in 1-7 groups were eye-dropped with solvent/control sample/test sample in both eyes, the volume of the administration was all 50 μL/eye, once per day for 14 consecutive days, and the day of the administration was recorded as Day 1. On Day 1, intraocular pressure of the animals was measured before the administration and in 1, 2, 4, 6, 8 and 10 hours after the administration, respectively; on Days 2-14, intraocular pressure of the animals was measured in 1 hour after daily administration for the group administered with K-115, and intraocular pressure of the animal was measured in 4 hours after daily administration for the other groups.

[2] = Toxicokinetics experiment: active compounds in plasma after 14 days of continuous administration; format: in vivo, New Zealand rabbits; conditions: for Concentration of active compounds in plasma, Group 1 / Concentration of active compounds in plasma, Group 2: 8.0 mg/mL eye-drop, after 14 days of continuous administration
Procedure: Experimental Example 5. Toxicokinetics Experiment
The production rate of active drug ingredients and the exposure amount of active drug ingredients of the compound in plasma were detected after 14 days of continuous administration.
Male New Zealand rabbits, aged 3-6 months, weighted 2.0-5.0 kg, purchased from PizhouDongfang Breeding Co. Ltd.
After 14 days of continuous administration, blood samples from the group administrated with compound 63 (8.0 mg/mL) were collected at 0 hour (before administration) and in 0.5, 1, 2, 4, 8, and 24 hours after administration on Days 14-15. About 0.8 mL of whole blood was collected from the auricular artery or the saphenous vein of the hind limb (or other appropriate sites) of toxicokinetics experiment animals, and was placed in labeled collection tubes using ethylenediaminetetraacetic acid dipotassium (K2EDTA) as an anticoagulant. Plasma was obtained by centrifugation for 10 minutes at 3000 rpm and under the condition of 2° C. to 8° C. in 60 minutes after blood collection. All samples were quantitatively detected for the content of the administered compounds in plasma of the experimental animals by liquid chromatography-coupled mass spectrometry (LC-MS) and mass spectrometry (MS) technology.

[3] = 4.0 mg/mL once per day, Day 2, 4 hours after daily administration
[4] = 4.0 mg/mL once per day, Day 3, 4 hours after daily administration
[5] = 4.0 mg/mL once per day, Day 4, 4 hours after daily administration
[6] = 4.0 mg/mL once per day, Day 5, 4 hours after daily administration
[7] = 4.0 mg/mL once per day, Day 6, 4 hours after daily administration
[8] = 4.0 mg/mL once per day, Day 7, 4 hours after daily administration
[9] = 8.0 mg/mL once per day, Day 2, 4 hours after daily administration
[10] = 8.0 mg/mL once per day, Day 3, 4 hours after daily administration
[11] = 8.0 mg/mL once per day, Day 4, 4 hours after daily administration
[12] = 8.0 mg/mL once per day, Day 5, 4 hours after daily administration
[13] = 8.0 mg/mL once per day, Day 6, 4 hours after daily administration
[14] = 8.0 mg/mL once per day, Day 7, 4 hours after daily administration
[15] = Time 0.00 hour (before administration)

## Cc1ccc(C(=O)OCn2cc(C)c3c(S(=O)(=O)N4CC[C@H](N)C4)cccc3c2=O)c(C)c1 [Compound 63]
[1]; 2.0 mg/mL once per day, Day 10, 4 hours after daily administration
  Change of intraocular pressure: 3.81 mmHg
[1]; 2.0 mg/mL once per day, Day 11, 4 hours after daily administration
  Change of intraocular pressure: 3.66 mmHg
[1]; 2.0 mg/mL once per day, Day 12, 4 hours after daily administration
  Change of intraocular pressure: 3.5 mmHg
[1]; 2.0 mg/mL once per day, Day 13, 4 hours after daily administration
  Change of intraocular pressure: 4.28 mmHg
[1]; 2.0 mg/mL once per day, Day 14, 4 hours after daily administration
  Change of intraocular pressure: 3.91 mmHg
[1]; 2.0 mg/mL, Day 1, 1 hour after administration
  Change of intraocular pressure: 1.75 mmHg
[1]; 2.0 mg/mL, Day 1, 2 hours after administration
  Change of intraocular pressure: 3.5 mmHg
[1]; 2.0 mg/mL, Day 1, 4 hours after administration
  Change of intraocular pressure: 3.84 mmHg
[1]; 2.0 mg/mL, Day 1, 6 hours after administration
  Change of intraocular pressure: 4.69 mmHg
[1]; 2.0 mg/mL, Day 1, 8 hours after administration
  Change of intraocular pressure: 4.53 mmHg
[1]; 2.0 mg/mL, Day 1, 10 hours after administration
  Change of intraocular pressure: 4.75 mmHg
[1]; 2.0 mg/mL, Day 1, before administration
  Change of intraocular pressure: 0.22 mmHg
[1]; 4 mg/mL both eyes, Day 1, 1 hour after administration
  Mean intraocular pressure of both eyes: 10.44 mmHg
[1]; 4 mg/mL both eyes, Day 1, 2 hours after administration
  Mean intraocular pressure of both eyes: 7.81 mmHg
[1]; 4 mg/mL both eyes, Day 1, 4 hours after administration
  Mean intraocular pressure of both eyes: 6.47 mmHg
[1]; 4 mg/mL both eyes, Day 1, 6 hours after administration
  Mean intraocular pressure of both eyes: 6.22 mmHg
[1]; 4 mg/mL both eyes, Day 1, 8 hours after administration
  Mean intraocular pressure of both eyes: 7.33 mmHg
[1]; 4 mg/mL both eyes, Day 1, 10 hours after administration
  Mean intraocular pressure of both eyes: 8.64 mmHg
[1]; 4 mg/mL both eyes, Day 1, before administration
  Mean intraocular pressure of both eyes: 9.67 mmHg
[1]; [3]
  Mean intraocular pressure of both eyes: 6.53 mmHg
  Change of intraocular pressure: 4.55 mmHg
[1]; [4]
  Mean intraocular pressure of both eyes: 5.58 mmHg
  Change of intraocular pressure: 4.81 mmHg
[1]; [5]
  Mean intraocular pressure of both eyes: 5.53 mmHg
  Change of intraocular pressure: 5.08 mmHg
[1]; [6]
  Mean intraocular pressure of both eyes: 6.61 mmHg
  Change of intraocular pressure: 4.36 mmHg
[1]; [7]
  Mean intraocular pressure of both eyes: 5.47 mmHg
  Change of intraocular pressure: 3.84 mmHg
[1]; [8]
  Mean intraocular pressure of both eyes: 5.56 mmHg
  Change of intraocular pressure: 4.5 mmHg
[1]; 4.0 mg/mL once per day, Day 8, 4 hours after daily administration
  Change of intraocular pressure: 4.53 mmHg
[1]; 4.0 mg/mL once per day, Day 9, 4 hours after daily administration
  Change of intraocular pressure: 3.97 mmHg
[1]; 4.0 mg/mL once per day, Day 10, 4 hours after daily administration
  Change of intraocular pressure: 4.67 mmHg
[1]; 4.0 mg/mL once per day, Day 11, 4 hours after daily administration
  Change of intraocular pressure: 3.86 mmHg
[1]; 4.0 mg/mL once per day, Day 12, 4 hours after daily administration
  Change of intraocular pressure: 3.64 mmHg
[1]; 4.0 mg/mL once per day, Day 13, 4 hours after daily administration
  Change of intraocular pressure: 4.36 mmHg
[1]; 4.0 mg/mL once per day, Day 14, 4 hours after daily administration
  Change of intraocular pressure: 4.64 mmHg
[1]; 4 mg/mL, Day 1, 1 hour after administration
  Change of intraocular pressure: −0.13 mmHg
[1]; 4 mg/mL, Day 1, 2 hours after administration
  Change of intraocular pressure: 3.16 mmHg
[1]; 4 mg/mL, Day 1, 4 hours after administration
  Change of intraocular pressure: 4.84 mmHg
[1]; 4 mg/mL, Day 1, 6 hours after administration
  Change of intraocular pressure: 5.72 mmHg
[1]; 4 mg/mL, Day 1, 8 hours after administration
  Change of intraocular pressure: 5.64 mmHg
[1]; 4 mg/mL, Day 1, 10 hours after administration
  Change of intraocular pressure: 5.78 mmHg
[1]; 4 mg/mL, Day 1, before administration
  Change of intraocular pressure: 0.22 mmHg
[1]; 8.0 mg/mL both eyes, Day 1, 1 hour after administration
  Mean intraocular pressure of both eyes: 7.69 mmHg
[1]; 8.0 mg/mL both eyes, Day 1, 2 hours after administration
  Mean intraocular pressure of both eyes: 6.39 mmHg
[1]; 8.0 mg/mL both eyes, Day 1, 4 hours after administration
  Mean intraocular pressure of both eyes: 7.06 mmHg
[1]; 8.0 mg/mL both eyes, Day 1, 6 hours after administration
  Mean intraocular pressure of both eyes: 7.11 mmHg
[1]; 8.0 mg/mL both eyes, Day 1, 8 hours after administration
  Mean intraocular pressure of both eyes: 7.22 mmHg
[1]; 8.0 mg/mL both eyes, Day 1, 10 hours after administration
  Mean intraocular pressure of both eyes: 7.97 mmHg
[1]; 8.0 mg/mL both eyes, Day 1, before administration
  Mean intraocular pressure of both eyes: 10.17 mmHg
[1]; [9]
  Mean intraocular pressure of both eyes: 6.33 mmHg
  Change of intraocular pressure: 4.75 mmHg
[1]; [10]
  Mean intraocular pressure of both eyes: 5.78 mmHg
  Change of intraocular pressure: 4.61 mmHg
[1]; [11]
  Mean intraocular pressure of both eyes: 5.97 mmHg
  Change of intraocular pressure: 4.64 mmHg
[1]; [12]
  Mean intraocular pressure of both eyes: 6.42 mmHg
  Change of intraocular pressure: 4.55 mmHg
[1]; [13]
  Mean intraocular pressure of both eyes: 5.56 mmHg
  Change of intraocular pressure: 3.75 mmHg
[1]; [14]
  Mean intraocular pressure of both eyes: 5.28 mmHg
  Change of intraocular pressure: 4.78 mmHg
[1]; 8.0 mg/mL once per day, Day 8, 4 hours after daily administration
  Change of intraocular pressure: 5.59 mmHg
[1]; 8.0 mg/mL once per day, Day 9, 4 hours after daily administration
  Change of intraocular pressure: 4.25 mmHg
[1]; 8.0 mg/mL once per day, Day 10, 4 hours after daily administration
  Change of intraocular pressure: 4.19 mmHg
[1]; 8.0 mg/mL once per day, Day 11, 4 hours after daily administration
  Change of intraocular pressure: 4.16 mmHg
[1]; 8.0 mg/mL once per day, Day 12, 4 hours after daily administration
  Change of intraocular pressure: 3.97 mmHg
[1]; 8.0 mg/mL once per day, Day 13, 4 hours after daily administration
  Change of intraocular pressure: 4.72 mmHg
[1]; 8.0 mg/mL once per day, Day 14, 4 hours after daily administration
  Change of intraocular pressure: 4.03 mmHg
[1]; 8.0 mg/mL, Day 1, 1 hour after administration
  Change of intraocular pressure: 2.62 mmHg
[1]; 8.0 mg/mL, Day 1, 2 hours after administration
  Change of intraocular pressure: 4.58 mmHg
[1]; 8.0 mg/mL, Day 1, 4 hours after administration
  Change of intraocular pressure: 4.25 mmHg
[1]; 8.0 mg/mL, Day 1, 6 hours after administration
  Change of intraocular pressure: 4.83 mmHg
[1]; 8.0 mg/mL, Day 1, 8 hours after administration
  Change of intraocular pressure: 5.75 mmHg
[1]; 8.0 mg/mL, Day 1, 10 hours after administration
  Change of intraocular pressure: 6.45 mmHg
[1]; 8.0 mg/mL, Day 1, before administration
  Change of intraocular pressure: −0.28 mmHg
[1]; all test doses (0.5-8.0 mg/mL), compared with K-115
  Efficacy of a single dose (highest hypotensive effect and action duration): superior efficacy
[1]; dose of 0.5 mg/mL
  Hypotensive effect after 14 days of continuous administration: maintain a significant hypotensive effect
[2]; [15]
  Concentration of active compounds in plasma, Group 1: BQL
  Concentration of active compounds in plasma, Group 2: BQL
[2]; Time 8.00 hour
  Concentration of active compounds in plasma, Group 1: BQL
  Concentration of active compounds in plasma, Group 2: BQL
[2]; Time 24.0 hour
  Concentration of active compounds in plasma, Group 1: BQL
  Concentration of active compounds in plasma, Group 2: BQL
[2]; 8 hours after administration, high dose of 8 mg/mL
  Metabolite concentration in plasma: below the detection limit
